# US9339486B2, “Heterocyclic modulators of cannabinoid receptors” (THE CLEVELAND CLINIC FOUNDATION, priority 2008, dated 2016)
# pEC50: −log10 of the molar value.
# Legend:
# [1] = molecular target: CB1 (Homo sapiens (Human), UniProt P21554); assay: CB1/CB2 Functional Assay (GTPγ[35S]), CB1 membranes; type: biochemical
# Method: A dose response curve was generated at eight concentrations in duplicate on CB1 and CB2 in light of reference agonists. The reference agonists for cannabinoid receptors was CP55,940. See FIGS. 1A, 1B, 2A, 2B, 3A and 3B.
# Membranes (CB1, ES-110-MG or CB2, ES-111-MG) were mixed with GDP (volume:volume) and incubated for at least 15 min on ice. In parallel, GTPγ[^35S] were mixed with the beads (volume:volume) just before starting the reaction. The following reagents were successively added in the wells of an Optiplate: 50 μl of ligand, 20 μl of the membranes:GDP mix, 10 μl of assay buffer for agonist testing and 20 μl of the GTPγ[^35S]: beads mix. The plates were covered with a topseal, shaken on an orbital shaker for 2 min, and then incubated between 30 to 60 min. at room temperature. Then the plates were centrifuged for 10 min at 2000 rpm, incubated at room temperature between 1 to 4 hours and counted for 1 min with a PerkinElmer TopCount reader.
# [2] = molecular target: hCB1 (human CB1) receptors (Homo sapiens (Human), UniProt P21554); assay: GTPγ[35S] functional assay, CHO membrane extracts hCB1; type: biochemical
# Method: Functional activity was evaluated using GTPγ[^35S] assay in CHO membrane extracts expressing recombinant hCB1 (human CB1) receptors or hCB2 (human CB2) receptors. The assay relies on the binding of GTPγ[^35S], a radiolabeled nonhydrolyzable GTP analogue, to the G protein upon binding of an agonist of the G-protein-coupled receptor. In this system, agonists stimulate GTPγ[^35S] binding whereas neutral antagonist have no effect and inverse agonists decrease GTPγ[^35S] basal binding.
# The compound of Example 3 was solubilized in 100% DMSO at a concentration of 10 mM within 4 hours of the first testing session (master solution). A predilution for the dose response curve was performed in 100% DMSO and then diluted 100 fold in assay buffer at a concentration 2 fold higher than the concentration to be tested. […] For GTPγS membranes were mixed with GDP diluted in assay buffer to give 30 μM solution (volume:volume) and incubated for at least […] on ice. In parallel, GTPγ[^35S] (GE Healthcare, Catalogue number SJ1308) were mixed with the beads (PVT-WGA (GE Healthcare, RPNQ001)), diluted in assay buffer at 50 mg/ml (0.5 mg/10 μl) (volume:volume) just before starting the reaction. […] Then the plates were centrifuged for 10 min at 2000 rpm and counted for 1 min/well with a PerkinElmer TopCount reader. […]
# [3] = test system: nerve-ligation model; assay: Assessment of mechanical allodynia in rats, L5/6 spinal-nerve ligation, von Frey (IP or IT); type: in vivo, rat
# Method: All experiments were performed on male Sprague-Dawley rats (200-250 g). Rats were housed individually in plastic cages with soft bedding at room temperature and maintained on a 12-hour light-dark cycle with free access to food and water.
# Neuropathic pain was induced following the methods of Kim and Chung. Kim S H, Chung J M. An experimental model for peripheral neuropathy produced by segmental spinal nerve ligation in the rat. Pain 1992; 50:355-63. Rats were anesthetized and placed prone under a microsurgical apparatus. A midline incision was made on the back, and the right paraspinal muscles were separated from the spinous processes at the L4-S2 levels. The L6 transverse process was carefully removed, and the L4/5 spinal nerves were identified. The L5 nerve was tightly ligated with a 6-0 silk suture. The right L6 spinal nerve was then located just caudal and medial to the sacroiliac junction and tightly ligated with a silk suture.
# Two weeks later after spinal nerve ligation, Intrathecal catheters (PE-10 tubing) was inserted into the rats while they were anesthetized with isoflurane, as described by Yaksh and Rudy. Yaksh T L, Rudy T A. Chronic catheterization of the spinal subarachnoid space. Physiology & Behavior 1976; 17:1031-6. A midline incision was made on the back of the neck. The muscle was freed at the attachment to the skull exposing the cisternal membrane. The membrane was opened with a stab blade and an 8.5 cm polyethylene (PE-10) catheter was then inserted through the cisternal opening, and passed carefully and caudally into the intrathecal space at the L1-L3 spinal segments. The end of the catheter was tunneled through the subcutaneous space over the frontal bones, flushed with 10 μl saline, and then plugged with a short length of wire. Animal testing was performed 5-7 days after intrathecal catheter placement.
# To assess mechanical allodynia, the mechanical paw withdrawal threshold was measured with a series of von Frey hairs (range 0.4-15 g). Rats were placed in elevated Perspex enclosures (28 cm×15 cm×18 cm) with wire mesh bases and given 15-20 min to acclimatize to the testing environment. Rats will be allowed to acclimatize for 30 min in a clear plastic cage with a wire mesh bottom. The calibrated von Frey filament fibers were applied to the hindpaw briefly for 6 seconds to determine the paw withdrawal threshold before and after drug injection (intraperitoneally or intrathecally). A series of von Frey filaments with exponentially incremental stiffness (0.4, 0.7, 1.2, 2.0, 3.6, 5.5, 8.5 and 15 g) were used to measure the 50% threshold for hindpaw withdrawal in awake, unrestrained rats. Chaplan S R, Bach F W, Pogrel J W, Chung J M, Yaksh T L. Quantitative assessment of tactile allodynia in the rat paw. Journal of Neuroscience Methods 1994; 53:55-63. Brisk paw withdrawal from the pressure of a filament gently bent against the plantar paw was defined as a positive response, and absence of withdrawal within 6 s as a negative response. Filaments were touched to the hindpaw in sequential ascending or descending order until the threshold of response is crossed (allowing about 10 s between each increment of the von Frey filaments). Each time the threshold is crossed, the direction of stimulus presentation was reversed and the procedure will be resumed. Four responses were collected after the first threshold detection, and the 50% withdrawal thresholds were interpolated. In cases where response thresholds fell outside the range of detection, 15.00 and 0.25 g were, respectively, assigned for continuous negative or positive responses to the limit of stimuli.
# The compound of Example 3 was prepared in dimethyl sulfoxide (DMSO).
# Sequence of CB1 (P21554 whole entry): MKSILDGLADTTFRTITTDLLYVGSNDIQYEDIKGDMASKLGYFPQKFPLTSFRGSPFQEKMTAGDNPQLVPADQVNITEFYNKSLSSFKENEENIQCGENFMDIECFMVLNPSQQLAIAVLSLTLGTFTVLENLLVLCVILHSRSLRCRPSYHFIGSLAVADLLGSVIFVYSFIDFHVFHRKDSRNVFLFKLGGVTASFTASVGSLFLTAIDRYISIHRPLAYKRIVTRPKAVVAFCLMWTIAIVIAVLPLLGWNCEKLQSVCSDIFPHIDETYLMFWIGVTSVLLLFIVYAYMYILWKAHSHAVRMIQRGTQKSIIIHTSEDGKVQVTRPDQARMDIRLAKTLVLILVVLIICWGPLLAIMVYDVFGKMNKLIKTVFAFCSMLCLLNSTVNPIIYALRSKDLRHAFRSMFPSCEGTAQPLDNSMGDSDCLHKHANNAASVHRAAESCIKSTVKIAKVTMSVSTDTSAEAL
smiles,measurement,setting,value
"CC1(Cc2ccccc2)COc2cc(C(=O)N3CCCCC3)ccc21 (centres unmarked) [Example 3, 3-benzyl-3-methyl-2,3-dihydrobenzofuran-6-carboxylic acid-piperidine amide]",Compound Function,[1],Agonist
same,% Activation Average,"[1]; reference agonist CP55,940",22.85%
same,agonistic or antagonistic activities at hCB1 receptors,[2],did not result in any agonistic or antagonistic activities
same,pEC50,[2]; read-out: Agonist EC50 (mean ± s.e. mean) GTPγ[35S] functional assays hCB1,< 5.00
same,mechanical paw withdrawal threshold maintained,[3]; IP 30 mg/kg,15 g
same,time of peak effect following IP administration,[3]; IP 30 mg/kg,≤ 5 min
same,effect on mechanical paw withdrawal threshold,[3]; IP 30 mg/kg in 0.5 ml,increase in mechanical paw withdrawal threshold
same,duration of high threshold,"[3]; IP 30 mg/kg, 2-h observation period",> 2 h
same,behavioral abnormalities or side effects,[3]; IT administration,No behavioral abnormalities or side effects were noted
same,effect on mechanical paw withdrawal threshold,[3]; IT administration,increase in mechanical paw withdrawal threshold
same,duration of increase in mechanical paw withdrawal threshold,"[3]; IT administration, 90-min observation period",≥ 90 min
